How the values were obtained:
MIF = settings: six week treatment, eight non-diabetic patients with obesity; cited from earlier work
[1] = test system: patients with type 2 diabetes and established atherosclerosis; assay: Clinical and biochemical observation parameters, double-blind placebo-controlled study, 4 weeks add-on treatment; format: in vivo, human; settings: mean ± SD; for Glucose: fasting; for HOMAIR: insulin resistance score; for IL-6 / MIF / MMP-9: plasma protein; for Adiponectin / Angiotensin II / Complement factor C3 / Insulin / Intact proinsulin / P-seclectin / sCD40L: plasma
[2] = test system: NFκB and NFκB-modulated cytokines in circulating peripheral mononuclear cells; assay: mRNA expression in circulating mononuclear cells (CD14+ monocytes/macrophages), calibrator-normalized relative quantification by LightCycler PCR; format: in vivo, human; settings: normalized ratio, reference gene β-actin, mean ± SD
From the text: Blood for the measurement of fasting glucose, MMP-9, and hsCRP was taken at baseline and after 3, 7, 10, 14 and 28 days of study treatment. Blood for assessment of the mRNA expression profile of circulating mononuclear cells as well as for assessment of circulating plasma levels of HbAlc, Insulin, Intact Proinsulin, Adiponectin, IL-6, sCD40L, P-Selectin, MIF, Angiotensin II, complement factor 3, and blood lipids were obtained at baseline and at the end of the study. Insulin resistance was calculated using the HOMAIR score at baseline and study endpoint as published previously (29, 30).
Isolation of MNC from whole blood was performed as a density gradient centrifugation by means of the ACCUSPIN System-HISTOPAQUE-1077 (Sigma-Aldrich Chemie GmbH, Steinheim, Germany). The isolation of macrophages and monocytes from the collected cells was performed by MACS magnetic cell sorting with CD14 MicroBeads (human) (Miltenyi Biotec GmbH, Bergisch Gladbach, Germany). The CD14 positive (CD14+) cells (macrophages and monocytes) were first magnetically labeled with MACS CD14 MicroBeads. The cell suspension was loaded on a MS MACS Column which was placed in the magnetic field of a MiniMACS Separator. The magnetically labeled CD14+ cells were retained in the column and separated from the unlabelled cell fraction.
The mRNA isolation from macrophages and monocytes was performed with the High Pure RNA Isolation Kit (Roche Applied Science, Penzberg, Germany). The cells were first lysed and the intact and undegraded RNA was adsorbed to a glass fibre fleece. Simultaneously, RNAses were inactivated. Furthermore, residues of contaminating DNA were digested and the RNA was purified from salts, proteins and other impurities. Purity of the isolated mRNA was assessed by real-time PCR (LightCycler II, Roche Diagnostics, Mannheim, Germany). The transcription of mRNA in cDNA was performed on a thermocycler (Biozym Diagnostik GmbH, Oldendorf, Germany) according to a standardized protocol (‘Transcriptor First Strand cDNA Synthesis Kit’, Instruction Manual Version 1, 2004, Roche Applied Science, Penzberg, Germany).
Sequence specific primers were designed by TIB MOLBIOL (Syntheselabor GmbH, Berlin, Germany) to amplify the gene sequences of Rel-A, p105, IκB-α, IκB-β and IL-6. The primers for TNF-α were taken from “Rapid Cycle Real-Time PCR Methods and Applications Quantification” (31). The primers for MIF and MMP-9 were reproduced from previous reports (12, 32). A list of the primers used for the quantification experiments, the primer-specific PCR protocols and the specific amplification product melting points are provided in Table 1. An additional agarose gel electrophoresis assay was performed to verify the correct length of the amplification products.
The RNA quantification in this study, was performed by means of a calibrator-normalized relative quantification method based on the LightCycler II system (Roche Diagnostics, Mannheim, Germany), where quantification of a target and a reference gene is a function of PCR efficiency and the sample crossing point. The sample crossing point is the amplification cycle during an amplification assay, at which the fluorescence of a probe rises above background fluorescence. This occurs usually at the second derivative maximum (fastest change in fluorescence). […] In these experiments, β-actin is the most abundant protein in eukaryotic cells with constant expression (33). […] The principle of this method is the determination of the relative amount of the target gene and the reference gene for each sample and for the calibrator. […] All experiments were performed in triple replications.
Data are presented as arithmetic mean±standard deviation (SD) for continuous variables or mean±SEM for percent changes from baseline and as the number/proportion of patients for categorical variables.

[3] = in vivo; cited from earlier work
[4] = endpoint, after 4 weeks 45 mg pioglitazone add-on
[5] = endpoint, after 4 weeks of pioglitazone

CN(C)C(=N)N=C(N)N [metformin]
Plasma concentration of MIF and transcription of MIF mRNA in mononuclear cells (MIF): reduced

CCc1ccc(CCOc2ccc(CC3SC(=O)NC3=O)cc2)nc1 (stereo not drawn) [pioglitazone]
BMI [1, 4]: 31.4 ± 4.5 kg/m^2 | Diastolic blood pressure [1, 4]: 80 ± 11 mmHg | HDL cholesterol [1, 4]: 1.26 ± 0.26 mmol/L | HbA1c [1, 4]: 6.8 ± 0.9% | LDL cholesterol [1, 4]: 2.52 ± 0.76 mmol/L | Systolic blood pressure [1, 4]: 137 ± 18 mmHg | Total Cholesterol [1, 4]: 4.78 ± 1.09 mmol/L | hsCRP [1, 4]: 1.9 ± 1.7 mg/L | sICAM [1, 4]: 319 ± 86 µg/L | sVCAM [1, 4]: 943 ± 452 µg/L | Glucose [1, 4]: 122 ± 35 mg/dL | Glucose ([1]; pioglitazone arm, baseline): 142 ± 40 mg/dL | HOMAIR [1, 4]: 3.9 ± 2.6 | HOMAIR ([1]; pioglitazone arm, baseline): 5.9 ± 4.4 | BMI ([1]; pioglitazone arm, baseline): 31.0 ± 4.3 kg/m^2 | Diastolic blood pressure ([1]; pioglitazone arm, baseline): 83 ± 11 mmHg | HDL cholesterol ([1]; pioglitazone arm, baseline): 1.18 ± 0.24 mmol/L | HbA1c ([1]; pioglitazone arm, baseline): 7.0 ± 1.1% | LDL cholesterol ([1]; pioglitazone arm, baseline): 2.46 ± 0.80 mmol/L | Systolic blood pressure ([1]; pioglitazone arm, baseline): 144 ± 15 mmHg | Total Cholesterol ([1]; pioglitazone arm, baseline): 4.63 ± 0.99 mmol/L | hsCRP ([1]; pioglitazone arm, baseline): 2.9 ± 1.7 mg/L | sICAM ([1]; pioglitazone arm, baseline): 326 ± 90 µg/L | sVCAM ([1]; pioglitazone arm, baseline): 915 ± 409 µg/L | IL-6 [1, 4]: 3.2 ± 0.1 ng/L | MIF [1, 4]: 9.6 ± 3.5 µg/L | MMP-9 [1, 4]: 284 ± 101 µg/L | IL-6 ([1]; pioglitazone arm, baseline): 3.3 ± 0.5 ng/L | MIF ([1]; pioglitazone arm, baseline): 10.4 ± 5.3 µg/L | MMP-9 ([1]; pioglitazone arm, baseline): 344 ± 118 µg/L | Adiponectin [1, 4]: 22.1 ± 9.1 µg/mL | Angiotensin II [1, 4]: 8.0 ± 8.8 µg/L | Complement factor C3 [1, 4]: 1.5 ± 0.3 g/L | Insulin [1, 4]: 12 ± 7 μU/ml | Intact proinsulin [1, 4]: 19 ± 17 pmol/L | P-seclectin [1, 4]: 93 ± 22 µg/L | sCD40L [1, 4]: 1.1 ± 1.1 µg/L | Adiponectin ([1]; pioglitazone arm, baseline): 8.7 ± 3.5 µg/mL | Angiotensin II ([1]; pioglitazone arm, baseline): 10.2 ± 9.2 µg/L | Complement factor C3 ([1]; pioglitazone arm, baseline): 1.6 ± 0.4 g/L | Insulin ([1]; pioglitazone arm, baseline): 17 ± 10 μU/ml | Intact proinsulin ([1]; pioglitazone arm, baseline): 30 ± 37 pmol/L | P-seclectin ([1]; pioglitazone arm, baseline): 95 ± 20 µg/L | sCD40L ([1]; pioglitazone arm, baseline): 1.6 ± 1.8 µg/L | IL-6 mRNA expression [2, 5]: 1.05 ± 0.46 | IκB-β mRNA expression [2, 5]: 3.30 ± 2.41 | MIF mRNA expression [2, 5]: 0.84 ± 0.31 | MMP-9 mRNA expression [2, 5]: 1.48 ± 1.18 | RelA (p65 subunit of NF-κB) mRNA expression [2, 5]: 0.95 ± 0.44 | TNFα mRNA expression [2, 5]: 1.70 ± 0.93 | p105 (p50 subunit of NF-κB) mRNA expression [2, 5]: 1.33 ± 0.46 | IL-6 mRNA expression ([2]; pioglitazone arm, baseline): 1.13 ± 0.52 | IκB-β mRNA expression ([2]; pioglitazone arm, baseline): 3.17 ± 2.05 | MIF mRNA expression ([2]; pioglitazone arm, baseline): 0.98 ± 0.40 | MMP-9 mRNA expression ([2]; pioglitazone arm, baseline): 2.29 ± 2.68 | RelA (p65 subunit of NF-κB) mRNA expression ([2]; pioglitazone arm, baseline): 1.20 ± 0.74 | TNFα mRNA expression ([2]; pioglitazone arm, baseline): 1.88 ± 1.20 | p105 (p50 subunit of NF-κB) mRNA expression ([2]; pioglitazone arm, baseline): 1.63 ± 0.80

Cc1c(C)c2c(c(C)c1O)CCC(C)(COc1ccc(CC3SC(=O)NC3=O)cc1)O2 (stereo not drawn) [troglitazone]
Reason for being taken from the market [3]: hepatotoxiciy

— patent US20100256196A1, “Biomarkers for Atherosclerosis” (IKFE, priority 2008, published 2010)
